From patent US12673946B2, “Pyrimidin-4(3H)-one derivatives as TRPV4 antagonists” (RaQualia Pharma Inc., priority 2020, dated 2026)

Molecular target: T1, human TRPV4 (Homo sapiens, UniProt Q9HBA0)
T1 construct: host or cells: tetracycline-inducible Flp-In T-REx 293 cells
Experiment: Hypotonicity-induced Ca2+ influx (Fluo-4, FDSS)
Type: cell-based
Summary of the method: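 Flp-In T-REx 293 cells with tetracycline-induced human TRPV4, loaded with Fluo-4 for 60 min at 25 °C. Compound added 5 min before hypotonic mannitol/CaCl2 solution. Ca2+ signal recorded for 4.5 min on FDSS.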

[1] = Flp-In T-REx 293 cells expressing human TRPV4, examples listed under heading 'Human IC50<50 nM'
[2] = Flp-In T-REx 293 cells stably expressing human TRPV4, compounds listed by potency bin (<10 nM Tables 96-1/96-2, <3 nM Table 97)

T1 sequence (Q9HBA0 whole entry): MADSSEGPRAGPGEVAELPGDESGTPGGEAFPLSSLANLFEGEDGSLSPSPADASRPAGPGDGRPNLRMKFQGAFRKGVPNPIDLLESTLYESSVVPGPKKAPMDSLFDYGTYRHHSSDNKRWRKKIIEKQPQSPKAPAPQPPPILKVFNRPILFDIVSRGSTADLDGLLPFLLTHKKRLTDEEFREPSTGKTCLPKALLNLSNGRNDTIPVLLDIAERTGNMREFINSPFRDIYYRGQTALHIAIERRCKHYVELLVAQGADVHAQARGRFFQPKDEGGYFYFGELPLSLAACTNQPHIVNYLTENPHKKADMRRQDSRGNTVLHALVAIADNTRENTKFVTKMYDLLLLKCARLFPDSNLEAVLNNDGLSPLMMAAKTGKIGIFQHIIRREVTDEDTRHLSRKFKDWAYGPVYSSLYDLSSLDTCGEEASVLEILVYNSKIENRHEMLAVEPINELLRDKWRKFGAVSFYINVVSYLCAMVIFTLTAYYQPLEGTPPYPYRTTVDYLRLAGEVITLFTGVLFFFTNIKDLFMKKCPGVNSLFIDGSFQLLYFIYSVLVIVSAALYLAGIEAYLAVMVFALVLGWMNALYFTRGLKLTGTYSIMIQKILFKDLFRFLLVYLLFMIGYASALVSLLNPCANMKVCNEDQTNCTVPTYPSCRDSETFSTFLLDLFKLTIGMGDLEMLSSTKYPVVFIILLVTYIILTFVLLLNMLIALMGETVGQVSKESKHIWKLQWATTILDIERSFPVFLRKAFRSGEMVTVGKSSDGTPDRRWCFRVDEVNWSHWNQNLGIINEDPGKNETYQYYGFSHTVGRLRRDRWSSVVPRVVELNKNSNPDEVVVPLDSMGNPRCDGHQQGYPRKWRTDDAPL

IC50 [1] | IC50 [2] | Structure (SMILES)
< 50 nM | < 3 nM | N#Cc1cccc(-c2cccc(C3(c4nc5c(c(=O)[nH]4)CN(C(=O)[C@H](O)c4cccc(Cl)c4)CCC5)CC3)c2)c1 [40-21]
< 50 nM | < 10 nM | O=C(Cc1cccc(-c2cccc(Cl)c2)c1)N1CCCc2nc(C3(c4cccc(-c5csc6ccccc56)c4)CC3)[nH]c(=O)c2C1 [17-123]
< 50 nM | < 3 nM | O=C([C@H](O)c1cccc(C(F)(F)F)c1)N1CCCc2nc(C3(c4cccc(-c5cnc(-c6ccccc6)s5)c4)CC3)[nH]c(=O)c2C1 [17-98]
< 50 nM | < 3 nM | O=C([C@H](O)c1cccc(Cl)c1)N1CCCc2nc(C3(c4cccc(-c5csc6ccccc56)c4)CC3)[nH]c(=O)c2C1 [40-11]
< 50 nM | < 10 nM | O=C([C@H](O)c1cccc(-c2csc3ccccc23)c1)N1CCCc2nc(C3(c4cc(C5CCCCC5)cs4)CC3)[nH]c(=O)c2C1 [54-8]
< 50 nM | < 3 nM | O=C([C@H](O)c1cccc(-c2cc(Cl)cc(OC(F)(F)F)c2)c1)N1CCc2nc(C3(c4ccccc4)CC3)[nH]c(=O)c2C1 [44-98]
< 50 nM | < 10 nM | O=C(C(O)c1cccc(C(F)(F)F)c1F)N1CCCc2nc(C3(c4ccccc4)CC3)[nH]c(=O)c2C1 (stereo not shown) [17-20]
< 50 nM |  | O=C(Cc1ccc2ccccc2c1)N1CCCc2nc(C3(c4cccc(Cl)c4)CC3)[nH]c(=O)c2C1 [17-115]
< 50 nM | < 3 nM | O=C([C@H](O)c1cccc(C(F)(F)F)c1)N1CCc2nc(C3(c4cncc(-c5ccccc5)c4)CC3)[nH]c(=O)c2C1 [38-1]
< 50 nM | < 10 nM | O=C([C@H](O)c1cccc(-c2cc(C(F)(F)F)cc(C(F)(F)F)c2)c1)N1CCCc2nc(C3(c4ccccc4)CC3)[nH]c(=O)c2C1 [49-32]
< 50 nM | < 10 nM | CC(C)(C)c1cccc(C(O)C(=O)N2CCCc3nc(C4(c5cccc(Cl)c5)CC4)[nH]c(=O)c3C2)c1 (stereo not shown) [17-18]
< 50 nM | < 3 nM | O=C([C@H](O)c1cccc(-c2coc3ccccc23)c1)N1CCCc2nc(C3(c4cccc(Cl)c4)CC3)[nH]c(=O)c2C1 [50-8]
< 50 nM | < 10 nM | CC(C)(C)CC(=O)N1CCC(c2cccc(C3(c4nc5c(c(=O)[nH]4)CN(C(=O)[C@H](O)c4cccc(C(F)(F)F)c4)CCC5)CC3)c2)CC1 [31-12]
< 50 nM | < 10 nM | N#Cc1ccc(-c2cccc(C3(c4nc5c(c(=O)[nH]4)CN(C(=O)[C@H](O)c4cccc(C(F)(F)F)c4)CCC5)CC3)c2)cc1 [42-65]
< 50 nM | < 10 nM | O=C(C(O)c1cccc(-c2ccc(Cl)cc2)c1)N1CCCc2nc(C3(c4cccs4)CC3)[nH]c(=O)c2C1 (stereo not shown) [18-5]
< 50 nM | < 10 nM | O=C([C@H](O)c1cccc(C(F)(F)F)c1)N1CCCc2nc(C3(c4cc(CCC5(O)CCCCC5)cs4)CC3)[nH]c(=O)c2C1 [30-14]
< 50 nM | < 10 nM | O=C([C@H](O)c1cccc(-c2cccc(OC(F)(F)F)c2)c1)N1CCCc2nc(C3(c4cccc(C5CCCCC5)c4)CC3)[nH]c(=O)c2C1 [52-4]
< 50 nM | < 10 nM | O=C(Cc1cccc(-c2ccc(Cl)cc2)c1)N1CCCc2nc(C3(c4ccccc4)CC3)[nH]c(=O)c2C1 [17-135]
< 50 nM |  | O=C([C@H](O)c1cccc(C(F)(F)F)c1)N1CCCc2nc(C3(c4cnc(-c5ccccc5)o4)CC3)[nH]c(=O)c2C1 [18-31]
< 50 nM | < 3 nM | CC(C)c1csc(C2(c3nc4c(c(=O)[nH]3)CN(C(=O)C(O)c3cccc(Cl)c3F)CC4)CC2)c1 (stereo not shown) [15-27]
< 50 nM | < 10 nM | O=C(C(O)c1ccccc1Oc1ccccc1)N1CCCc2nc(C3(c4cccc(Cl)c4)CC3)[nH]c(=O)c2C1 (stereo not shown) [17-22]
< 50 nM | < 10 nM | COCCCc1csc(C2(c3nc4c(c(=O)[nH]3)CN(C(=O)[C@H](O)c3cccc(C(F)(F)F)c3)CCC4)CC2)c1 [30-10]
< 50 nM |  | O=C([C@H](O)c1cccc(Cl)c1)N1CCCc2nc(C3(c4cccs4)CC3)[nH]c(=O)c2C1 [18-12]
